According to ChEMBL document CHEMBL4725289, “Structure-activity relationship studies for the development of inhibitors of murine adipose triglyceride lipase (ATGL)” (Bioorg Med Chem, 2020):
Active and inactive are the calls of the source. The calls are words filed in the database; no cut-off is given here.

Columns and labels:
[1] = target: T1, Patatin-like phospholipase domain-containing protein 2 (Mus musculus, UniProt Q8BJ56); assay: Inhibition of murine ATGL expressed in COS-7 cells; type: cell-based
T1 sequence (Q8BJ56 whole entry): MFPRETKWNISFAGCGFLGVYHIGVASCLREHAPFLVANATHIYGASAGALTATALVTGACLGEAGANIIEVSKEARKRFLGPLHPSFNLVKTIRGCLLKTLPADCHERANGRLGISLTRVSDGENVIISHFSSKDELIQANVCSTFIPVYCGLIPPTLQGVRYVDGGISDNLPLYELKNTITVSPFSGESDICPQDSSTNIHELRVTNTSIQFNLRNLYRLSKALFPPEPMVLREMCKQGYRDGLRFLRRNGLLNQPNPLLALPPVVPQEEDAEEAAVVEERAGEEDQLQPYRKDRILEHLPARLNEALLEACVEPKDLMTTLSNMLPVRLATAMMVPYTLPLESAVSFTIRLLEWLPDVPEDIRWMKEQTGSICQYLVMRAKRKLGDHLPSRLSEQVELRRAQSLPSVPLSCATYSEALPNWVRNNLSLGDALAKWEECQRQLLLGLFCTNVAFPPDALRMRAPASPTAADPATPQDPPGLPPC

[2] = target: T2, Patatin-like phospholipase domain-containing protein 2 (Mus musculus) (UniProt Q8BJ56); assay: Inhibition of murine ATGL expressed in COS-7 cells at 200 uM relative to control; type: cell-based
T2 sequence (whole entry): T1 sequence (Q8BJ56 whole entry)

[3] = target: T1, Patatin-like phospholipase domain-containing protein 2; assay: Inhibition of recombinant murine ATGL expressed in Escherichia coli XL-1 lysates; type: subcellular
[4] = target: T2, Patatin-like phospholipase domain-containing protein 2 (Mus musculus); assay: Inhibition of recombinant murine ATGL expressed in Escherichia coli XL-1 lysates at 200 uM relative to control; type: subcellular
[5] = target: T1, Patatin-like phospholipase domain-containing protein 2; assay: Inhibition of murine ATGL
[6] = target: T2, Patatin-like phospholipase domain-containing protein 2 (Mus musculus); assay: Inhibition of murine ATGL at 200 uM relative to control
[7] = In vivo inhibition of ATGL in ad libitum fed mouse assessed as reduction in circulating fatty acid level at 200 uM administered via oral gavage measured after 8 hrs; type: functional
[8] = In vivo inhibition of ATGL in ad libitum fed mouse assessed as reduction in circulating glycerol level at 200 uM administered via oral gavage measured after 8 hrs; type: functional
[9] = In vivo inhibition of ATGL in 12 hrs fasted mouse assessed as reduction in circulating fatty acid level at 200 uM administered via oral gavage measured after 8 hrs; type: functional
[10] = In vivo inhibition of ATGL in 12 hrs fasted mouse assessed as reduction in circulating glycerol level at 200 uM administered via oral gavage measured after 8 hrs; type: functional
[11] = In vivo inhibition of ATGL in 12 hrs fasted mouse assessed as reduction in circulating triacylglycerol level at 200 uM administered via oral gavage measured after 8 hrs; type: functional
[12] = test system: Mus musculus; assay: In vivo inhibition of ATGL in 12 hrs fasted mouse assessed as reduction in circulating TG level at 200 uM administered via oral gavage in presence of poloxamer measured after 8 hrs; type: functional, organism-based

For `CCOC(=O)c1cccc(-c2ccc(CN3CCN(S(C)(=O)=O)CC3)cc2)c1`, which IC50 [1] is on record?
Its IC50 is 100 µM.

And the inhibition [2]?
Its inhibition is 68%.

And the IC50 [3]?
Its IC50 is 100 µM.

And the inhibition [4]?
The inhibition was 68%.

Which IC50 [1] does the source give for `CN(C)c1ccc(-c2cccc(NC(=O)C(C)(C)C)c2)cc1` here?
Its IC50 is > 200 µM.

What about the inhibition [2] of the same molecule?
The inhibition was 25%.

For `CCOC(=O)c1nn(-c2ccc(OCC)cc2)cc1O`, which IC50 [5] is on record?
Its IC50 is 120 µM.

And the inhibition [6]?
The inhibition was 67%.

For `CCOC(=O)c1ccc(-c2ccc(OCC)cc2)[nH]1`, which IC50 [1] is on record?
The IC50 was > 200 µM.

And the inhibition [2]?
The inhibition was 44%.

With `CCCCOC(=O)c1nn(-c2ccc(OCC)cc2)cc1O` as the molecule, how does the IC50 [5] read?
Its IC50 is 100 µM.

What about the inhibition [6] of the same molecule?
The inhibition was 74%.

Which IC50 [1] does the source give for `CCOC(=O)c1cccc(-c2ccc(CN3CCN(C)CC3)o2)c1` here?
Its IC50 is 120 µM.

What about the inhibition [2] of the same molecule?
The inhibition was 67%.

What does the source list for `CCOC(=O)c1cccc(-c2cccs2)c1`?
IC50 [1]: 90 µM; inhibition [2]: 55%

Which IC50 [1] does the source give for `CCOC(=O)c1cccc(-c2ccc(C(C)=O)cc2)c1` here?
Its IC50 is 200 µM.

And the inhibition [2]?
The inhibition was 36%.

And the IC50 [3]?
The IC50 was 200 µM.

What about the inhibition [4] of the same molecule?
Its inhibition is 17%.

Which IC50 [5] does the source give for `CCOC(=O)c1nn(-c2ccc(OCC)cc2)cc1OC` here?
The IC50 was 90 µM.

And the inhibition [6]?
The inhibition was 63%.

Which IC50 [1] does the source give for `CCOc1ccc(-c2cccc(C(=O)OCCOC)c2)cc1` here?
The IC50 was 70 µM.

What about the inhibition [2] of the same molecule?
The inhibition was 89%.

For `CCOc1ccc(-c2cccc(C(=O)O)c2)cc1`, which IC50 [1] is on record?
The IC50 was > 200 µM.

And the inhibition [2]?
The inhibition was 23%.

What does the source list for `CCOC(=O)c1cccc(-c2ccc(CN3CCCCC3)cc2)c1`?
IC50 [1]: 75 µM; inhibition [2]: 68%

What does the source list for `CCOC(=O)c1cn(-c2ccc(OCC)cc2)nn1`?
IC50 [3]: > 200 µM; inhibition [4]: 43%

With `CCOC(=O)c1cccc(-c2ccc(CN3CCN(S(C)(=O)=O)CC3)o2)c1` as the molecule, how does the IC50 [1] read?
Its IC50 is 100 µM.

What about the inhibition [2] of the same molecule?
Its inhibition is 66%.

For `CCOC(=O)c1cccc(-c2ccccc2)c1`, which IC50 [1] is on record?
Its IC50 is 200 µM.

And the inhibition [2]?
The inhibition was 52%.

For `CCOC(=O)c1cccc(-c2ccc(C(C)N(C)C)cc2)c1` (configuration not stated), which IC50 [1] is on record?
Its IC50 is 200 µM.

What about the inhibition [2] of the same molecule?
The inhibition was 50%.

And the IC50 [3]?
The IC50 was 200 µM.

And the inhibition [4]?
The inhibition was 9%.

What does the source list for `CN(C)c1ccc(-c2cccc(NC(=O)N3CCOCC3)c2)cc1`?
IC50 [1]: > 200 µM; inhibition [2]: 31%

What does the source list for `CCOc1ccc(-c2cccc(C(=O)NC)c2)cc1`?
IC50 [1]: > 200 µM; inhibition [2]: 40%

With `CCNC(=O)c1cccc(-c2ccc(OCC)cc2)c1` as the molecule, how does the IC50 [1] read?
Its IC50 is 90 µM.

And the inhibition [2]?
The inhibition was 62%.

For `CCOc1ccc(-c2cccc(C)c2)cc1`, which IC50 [1] is on record?
Its IC50 is 70 µM.

What about the inhibition [2] of the same molecule?
The inhibition was 54%.

For `CCOC(=O)c1ccn(-c2ccc(OCC)cc2)n1`, which inhibition [6] is on record?
Its inhibition is 89%.

For `CCOC(=O)c1cccc(-c2ccc(CN3CCCC3)cc2)c1`, which IC50 [1] is on record?
Its IC50 is > 200 µM.

And the inhibition [2]?
Its inhibition is 33%.

With `CCOC(=O)c1cccc(-c2ccc(C(C)N3CCN(C)CC3)cc2)c1` (configuration not stated) as the molecule, how does the IC50 [1] read?
The IC50 was 90 µM.

What about the inhibition [2] of the same molecule?
The inhibition was 69%.

And the IC50 [3]?
The IC50 was 200 µM.

And the inhibition [4]?
Its inhibition is 30%.

For `CCOc1ccc(-c2cccc(C(=O)OCCOCCOC)c2)cc1`, which IC50 [1] is on record?
The IC50 was > 200 µM.

What about the inhibition [2] of the same molecule?
Its inhibition is 43%.

Which results are given for `CCOC(=O)c1cccc(-c2ccc(C)cc2)c1`?
IC50 [1]: 140 µM; inhibition [2]: 63%

What does the source list for `CC(C)COC(=O)Nc1cccc(-c2ccc(N(C)C)cc2)c1`?
IC50 [1]: 22 µM; inhibition [2]: 90%

What does the source list for `CCOc1ccc(-c2ccccc2)cc1`?
IC50 [1]: > 200 µM; inhibition [2]: 35%

Which IC50 [1] does the source give for `CCOc1ccc(-c2cccc(C(=O)OCC(F)(F)F)c2)cc1` here?
Its IC50 is 120 µM.

And the inhibition [2]?
Its inhibition is 71%.

With `CCOC(=O)c1cccc(-c2ccc(C(=O)CN(C)C)cc2)c1` as the molecule, how does the IC50 [1] read?
Its IC50 is 200 µM.

And the inhibition [2]?
The inhibition was 20%.

And the IC50 [3]?
Its IC50 is 200 µM.

What about the inhibition [4] of the same molecule?
Its inhibition is 4%.

With `CCCCCCOC(=O)c1cccc(-c2ccc(OCC)cc2)c1` as the molecule, how does the IC50 [1] read?
Its IC50 is > 200 µM.

What about the inhibition [2] of the same molecule?
Its inhibition is 48%.

Which IC50 [1] does the source give for `CCOC(=O)c1ccc(-c2ccc(OCC)cc2)o1` here?
Its IC50 is 50 µM.

What about the inhibition [2] of the same molecule?
Its inhibition is 93%.

Which IC50 [1] does the source give for `CN(C)C(=O)Nc1cccc(-c2ccc(N(C)C)cc2)c1` here?
Its IC50 is < 5 µM.

And the inhibition [2]?
The inhibition was 98%.

What about the inhibition [4] of the same molecule?
Its inhibition is 99%.

And the inhibition in vivo at 200 µM [7]?
Its inhibition in vivo at 200 µM is 27%.

And the inhibition in vivo at 200 µM [8]?
The inhibition in vivo at 200 µM was 23%.

And the inhibition in vivo at 200 µM [9]?
The inhibition in vivo at 200 µM was 27%.

And the inhibition in vivo at 200 µM [10]?
The inhibition in vivo at 200 µM was 26%.

And the inhibition in vivo at 200 µM [11]?
Its inhibition in vivo at 200 µM is 37%.

What about the inhibition [12] of the same molecule?
The inhibition was “Active”.

Which IC50 [1] does the source give for `CCOC(=O)c1cccc(-c2ccc(OCC)c(N)c2)c1` here?
The IC50 was 140 µM.

What about the inhibition [2] of the same molecule?
The inhibition was 59%.

Which results are given for `CCOc1ccc(-c2cccc(S(=O)(=O)N(C)C)c2)cc1`?
IC50 [1]: 110 µM; inhibition [2]: 63%

With `CCOC(=O)N(C)c1cccc(-c2ccc(N(C)C)cc2)c1` as the molecule, how does the IC50 [1] read?
Its IC50 is > 200 µM.

And the inhibition [2]?
The inhibition was 20%.

For `CN(C)c1ccc(-c2cccc(NC(=O)Oc3ccccc3)c2)cc1`, which IC50 [1] is on record?
Its IC50 is 73 µM.

What about the inhibition [2] of the same molecule?
The inhibition was 75%.

What does the source list for `CCOC(=O)C1CCCC(c2ccc(OCC)cc2)N1` (configuration not stated)?
IC50 [1]: > 200 µM; inhibition [2]: 48%

What does the source list for `CCOc1ccc(-c2cccc([N+](=O)[O-])c2)cc1`?
IC50 [1]: > 200 µM; inhibition [2]: 35%
